System: retina
Experiment: Light-induced retinal apoptosis in rats under continuous light exposure, TUNEL staining
Format: in vivo, SD strain rats
Settings: SD rats exposed to 1000 lux for 4 days; 10 μg/kg subcutaneously three times a day for 4 days; TUNEL-positive cells to total cells per 200 μm of retina; n=5; control 9.3 ± 0.8; p < 0.01
Protocol: (1) Breeding Condition and Administration Method SD strain rats (male, 11 weeks old) were continuously exposed to 1000 lux of light for 4 days. During the exposure of light, the test group animals were administered subcutaneously with a composition comprising 2-decarboxy-2-(2-carboxyethyl)-13,14-dihydro-15-keto-16,16-difluoro-20-ethyl-PGE, isopropyl ester of the following formula (IV) at the amount of 10 μg/kg of the active ingredient per single administration three times a day, for 4 days. The control group animals were administrated subcutaneously the same volume of the vehicle. [drawing 7] (2) Preparation and Staining After the continuous light exposure was finished, animals of test and control groups were sacrificed by excessive etherization and both eyes of each animal were removed. The eyes were immediately fixed in a 2% paraformaldehyde and 2.5% glutaraldehyde solution in phosphate buffer, dehydrated with alcohol, and then embedded in paraffin. Thus fixed eyes were sliced parallel to the meridian of eye to provide thin retinal preparations each comprises optic disc. The obtained slices were subjected to tunnel staining (Apoptag® Intergen Company). (3) Estimation Total cell number and the number of tunnel-positive cells per 200 μm of the retina were counted and the ratio of the TUNEL-positive cells to the total cell number was determined. […]

## CCCCCCC(F)(F)C(=O)CC[C@H]1[C@H](O)CC(=O)[C@@H]1CCCCCCCCC(=O)OC(C)C [formula (IV), 2-decarboxy-2-(2-carboxyethyl)-13,14-dihydro-15-keto-16,16-difluoro-20-ethyl-PGE, isopropyl ester]
  Ratio of the TUNEL-positive cells (%) (Ave ± SE): 1.5 ± 0.2 %
